The values that follow come from patent publication US20260224534A1, “ALPHA-2-ADRENERGIC AGONISTS FOR IMPROVING VISION” (Bausch + Lomb Ireland Limited, priority 2023, published 2026).

SMILES strings stand for the structures.

What all share (type): in vivo, human
Data set [1] concerns patients with glaucoma or ocular hypertension. The data set can be described thus: Phase 1/2 study Part 2: visual field mean deviation. The settings on record: for visual field change in mean deviation: non-study eye, Day 14; for visual field mean deviation change from Baseline at Day 14: study eyes, positive change = improvement; for Improvement ≥1 dB in Study Eye, number of patients / Improvement ≥1 dB in Study Eye, percentage of patients / Improvement ≥1 dB in Treated Non-Study Eye, number of patients / Improvement ≥1 dB in Treated Non-Study Eye, percentage of patients: visual field.

Data set [2] has the same test system. Briefly: Phase 1/2 study Part 2: pupil size. An excerpt:
(§1) Part 1 was an open-label dose escalation study. The purpose of Part 1 of this study (WB007-001), was to assess the safety, tolerability, and IOP-lowering effects of a single drop of an ophthalmic solution containing [3-[(1S)-1-(1H-imidazole-5-yl)ethyl]-2-methylphenyl]methyl-2,2-dimethylpropanoate (Compound 1) with concentrations ranging from 0.05% to 0.4%. […] In addition to assessing the efficacy of Compound 1 on lowering IOP, the study also assessed the effects of the drug on visual function.
The effect of Compound 1 on pupil size was assessed at the baseline visit and on Day 14.

Data set [3] shares this test system. Briefly: Phase 1/2 study: safety, tolerability and comfort. The conditions noted are these: both doses (0.15%, 0.4%).
Source text: as §1

The test system is the same in data set [4]. The data set can be described thus: Phase 1/2 study Part 2: double-masked, randomized, active controlled, ocular hypotensive efficacy (IOP), twice daily. The conditions noted are these: for mean change from baseline in IOP, primary endpoint: Part 2, Day 14, Hour 2, study eye; for IOP-lowering effect, mean change from baseline in the study eye at all postbaseline timepoints: Part 2, both Compound 1 groups (0.15%, 0.4%) p≤0.007, Timolol p≤0.004.

The test system is the same in data set [5]. The data set can be described thus: Phase 1/2 study Part 2: low-luminance ETDRS visual acuity.
Source text: Low-luminance visual acuity refers to visual acuity determined using the standard Early Treatment Diabetic Retinopathy Study (ETDRS) chart with a 2.0 log unit neutral density filter placed in front of the eye.
as §1
Additional analyses examining the effect of Compound 1 on visual function included low-luminance visual acuity and visual fields.

As to `Cc1c(COC(=O)C(C)(C)C)cccc1[C@H](C)c1c[nH]cn1` [Compound 1, [3-[(1S)-1-(1H-imidazole-5-yl)ethyl]-2-methylphenyl]methyl-2,2-dimethylpropanoate], the “visual field change in mean deviation” value in data set [1] (0.15%) is 0.4±1.5 dB; in data set [1] (0.4%) it was −0.2±1.4 dB. Further, the “visual field mean deviation change from Baseline at Day 14” value in data set [1] (0.15%) is reported as 0.2±1.2 dB; in data set [1] (0.4%), −0.5±2.3 dB. In addition, the “Improvement ≥1 dB in Study Eye, number of patients” value in data set [1] (0.15%) was found to be 9 patients; in data set [1] (0.4%), 6 patients. In addition, the “Improvement ≥1 dB in Study Eye, percentage of patients” value was determined as 39% in data set [1] (0.15%) and 25% in data set [1] (0.4%). In addition, the “Improvement ≥1 dB in Treated Non-Study Eye, number of patients” value in data set [1] (0.15%) came to 7 patients; in data set [1] (0.4%), 6 patients. Moreover, the “Improvement ≥1 dB in Treated Non-Study Eye, percentage of patients” value in data set [1] (0.15%) is on record as 30%; in data set [1] (0.4%), 25%. In data set [2] (either dose (0.15%, 0.4%)), the “effect on pupil size” value is reported as “no meaningful decrease in pupil size”. In addition, the “mean change in pupil size from Baseline to Day 14 at Hour 0” value (shortened to “mean change in pupil size from Baseline”) in data set [2] (study eyes, 0.15%) is 0.0 mm; in data set [2] (study eyes, 0.4%), −0.1 mm; in data set [2] (treated non-study eyes, 0.15%), 0.0 mm; in data set [2] (treated non-study eyes, 0.4%), −0.1 mm. In data set [3], the safety and tolerability entry was “safe and well-tolerated”. For the same molecule, the “mean change from baseline in IOP, primary endpoint” value in data set [4] (0.15% twice daily) is on record as −4.9±1.8 mm Hg; in data set [4] (0.4% twice daily) it was −5.1±2.5 mm Hg. The “IOP-lowering effect, mean change from baseline in the study eye at all postbaseline timepoints” value in data set [4] is reported as “statistically significant IOP-lowering effects”. Further, the “percentage of subjects achieving an increase in ETDRS visual acuity of 15 or more letters under low luminance on at least one study visit” value in data set [5] (non-study eye, 0.15%) is recorded as 17.4%; in data set [5] (non-study eye, 0.4%) it was 25.0%; in data set [5] (study eye, 0.15%), 8.7%; in data set [5] (study eye, 0.4%), 16.7%. Besides, in data set [5] (patients receiving 0.15% or 0.4%), the “effect on low luminance visual acuity” value is given as “Dose related improvements in low luminance visual acuity”.
For `CC(C)(C)NC[C@H](O)COc1nsnc1N1CCOCC1` [Timolol, timolol, reference compound], in data set [1] (Timolol 0.5%), the “visual field change in mean deviation” value was −2.0±3.4 dB; the “visual field mean deviation change from Baseline at Day 14” value was −1.2±2.3 dB; the “Improvement ≥1 dB in Study Eye, number of patients” value was found to be 2 patients; the “Improvement ≥1 dB in Study Eye, percentage of patients” value was found to be 17%. In addition, in data set [1] (Timolol 0.5%), the “Improvement ≥1 dB in Treated Non-Study Eye, number of patients” value is on record as 0 patients (0%) and the “Improvement ≥1 dB in Treated Non-Study Eye, percentage of patients” value is 0 patients (0%). In addition, in data set [2] (study eyes, Timolol 0.5%), the “mean change in pupil size from Baseline” value is −0.1 mm. Also, the “mean change in pupil size from Baseline” value in data set [2] (treated non-study eyes, Timolol 0.5%) was −0.1 mm. For the same molecule, the “mean change from baseline in IOP, primary endpoint” value in data set [4] (0.5% timolol ophthalmic solution) is given as −6.0±3.0 mm Hg. In data set [4], the “IOP-lowering effect, mean change from baseline in the study eye at all postbaseline timepoints” value was “statistically significant IOP-lowering effects”. The “percentage of subjects achieving an increase in ETDRS visual acuity of 15 or more letters under low luminance on at least one study visit” value in data set [5] (non-study eye, timolol 0.5%) stood at 8.3%. The “percentage of subjects achieving an increase in ETDRS visual acuity of 15 or more letters under low luminance on at least one study visit” value in data set [5] (study eye, timolol 0.5%) is 0%.
